Active and inactive are the calls of the source.
Legend:
[1] = target: Nonstructural protein 1 (Influenza A virus, UniProt Q194T2); type: functional, Influenza A virus (A/California/07/2009(H1N1))
[2] = cells; type: functional, cell-based
[3] = system: Streptococcus; assay: Group A Streptococcus viability loss, dose response, counter-screen for streptokinase expression inhibitor project, luminescence, BacTiterGlo (AID 1915); type: functional, organism-based;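 further: potency for reduction of bacterial viability or growth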
[4] = growth suppression of PTEN-null colon cells, dose response, cell-based, HCT116 PTEN knockout (AID 1047); type: functional;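 further: HCT116 colon tumor cells with PTEN knocked out; cells exposed to compound for 60 hours before readout; potency for loss of cell viability measured by luminescence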
[5] = system: BJ; assay: cytotoxicity toward BJ-TERT fibroblasts, dose response, cell-based, RAS-independent, luminescence (AID 1933); type: functional; details: Homo sapiens
[6] = system: BJ; assay: cytotoxicity toward BJ-TERT-LT-ST fibroblasts, dose response, cell-based, RAS-independent, luminescence (AID 1935); type: functional; details: Homo sapiens;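 further: BJ fibroblasts immortalized with TERT plus LT and ST oncogenes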
[7] = NIH-3T3 fibroblast cytotoxicity, dose response, cytotoxicity control, cell-based, fluorescence, Alamar Blue, secondary assay (AID 2327); type: functional;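 further: NIH-3T3 mouse fibroblasts cultured with fluconazole at 8 µg/mL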
[8] = system: BJ; assay: cells; type: functional, cell-based; details: Homo sapiens
[9] = target: Luciferin 4-monooxygenase (Photinus pyralis, UniProt P08659); assay: Counter Screen for Luciferase-based Assay Positives. [Related pubchem assays: 620, 618, 411 ]
Sequence of Luciferin 4-monooxygenase (P08659 whole entry): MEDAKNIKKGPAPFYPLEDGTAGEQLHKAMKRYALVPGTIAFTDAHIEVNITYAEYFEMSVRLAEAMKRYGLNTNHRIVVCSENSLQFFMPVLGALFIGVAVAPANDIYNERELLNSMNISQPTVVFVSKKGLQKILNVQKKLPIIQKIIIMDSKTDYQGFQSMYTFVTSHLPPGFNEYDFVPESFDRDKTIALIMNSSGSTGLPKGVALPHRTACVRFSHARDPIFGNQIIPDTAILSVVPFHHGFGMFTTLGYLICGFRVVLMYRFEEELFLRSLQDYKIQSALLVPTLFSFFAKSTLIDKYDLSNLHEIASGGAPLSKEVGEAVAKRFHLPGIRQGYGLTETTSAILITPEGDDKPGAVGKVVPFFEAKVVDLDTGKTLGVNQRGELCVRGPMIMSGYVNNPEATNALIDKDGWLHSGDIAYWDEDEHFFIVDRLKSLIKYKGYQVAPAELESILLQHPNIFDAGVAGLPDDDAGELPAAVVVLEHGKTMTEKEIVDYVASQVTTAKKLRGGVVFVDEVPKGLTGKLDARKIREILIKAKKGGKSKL

[10] = NIH-3T3 fibroblast cytotoxicity, dose response, cytotoxicity control for antifungal single agent project, cell-based, Alamar Blue, dry powder (AID 602188); type: functional
[11] = target: T1, Serine/threonine-protein phosphatase (Candida dubliniensis (strain CD36 / CBS 7987 / NCPF 3949 / NRRLY-17841) (Yeast), UniProt B9W6M3); assay: calcineurin pathway inhibitors in yeast reporter, dose response, S. cerevisiae, CDRE-lacZ, luminescence, secondary (AID 2388); type: functional, cell-based;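 further: yeast reporter cells carrying a calcineurin-responsive lacZ construct stimulated with calcium chloride; luminescent beta-galactosidase reporter signal in whole cells rather than isolated phosphatase activity; potency for inhibition where a drop in reporter signal means calcineurin blockade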
T1 sequence (B9W6M3 whole entry): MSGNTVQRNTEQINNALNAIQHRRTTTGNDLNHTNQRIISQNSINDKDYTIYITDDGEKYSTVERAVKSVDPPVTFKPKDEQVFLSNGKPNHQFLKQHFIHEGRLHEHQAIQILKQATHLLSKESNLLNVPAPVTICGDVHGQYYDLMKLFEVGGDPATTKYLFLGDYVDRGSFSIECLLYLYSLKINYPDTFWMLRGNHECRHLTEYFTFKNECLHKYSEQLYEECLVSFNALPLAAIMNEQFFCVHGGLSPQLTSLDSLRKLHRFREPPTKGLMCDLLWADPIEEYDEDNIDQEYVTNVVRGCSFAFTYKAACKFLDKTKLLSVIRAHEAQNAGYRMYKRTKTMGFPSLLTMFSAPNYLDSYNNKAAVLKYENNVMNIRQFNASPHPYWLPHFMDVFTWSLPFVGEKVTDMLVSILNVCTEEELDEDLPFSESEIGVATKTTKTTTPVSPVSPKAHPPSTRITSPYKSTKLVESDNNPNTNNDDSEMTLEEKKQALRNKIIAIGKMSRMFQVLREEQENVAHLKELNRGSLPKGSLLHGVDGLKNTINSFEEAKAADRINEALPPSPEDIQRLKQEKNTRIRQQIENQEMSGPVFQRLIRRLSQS

[12] = system: HT-1080; assay: cytotoxicity in HT1080 fibrosarcoma cells, cell-based, fluorescence readout (AID 620); type: functional; details: Homo sapiens
[13] = growth suppression of beta-catenin-knockout colon cells, dose response, cell-based, HCT116, human colon tumor (AID 1045); type: functional;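 further: HCT116 colon tumor cells with beta catenin knocked out; cells exposed to compound for 60 hours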
[14] = system: Streptococcus sp. 'group A'; assay: growth inhibition of control SK(-) GAS strain, dose response, counter-screen for streptokinase expression inhibitor project, luminescence, kanamycin, BacTiterGlo, confirmation (AID 1900); type: functional, organism-based
[15] = target: T2, Streptokinase A (Streptococcus pyogenes serotype M1, UniProt P10520); assay: S. pyogenes streptokinase expression inhibitors, potency, dose response, plasminogen activation absorbance, OD405 (AID 1914); type: functional, Streptococcus pyogenes M1 GAS;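 further: secreted streptokinase activity via plasminogen activation per viability signal from cell pellet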
T2 sequence (P10520 whole entry): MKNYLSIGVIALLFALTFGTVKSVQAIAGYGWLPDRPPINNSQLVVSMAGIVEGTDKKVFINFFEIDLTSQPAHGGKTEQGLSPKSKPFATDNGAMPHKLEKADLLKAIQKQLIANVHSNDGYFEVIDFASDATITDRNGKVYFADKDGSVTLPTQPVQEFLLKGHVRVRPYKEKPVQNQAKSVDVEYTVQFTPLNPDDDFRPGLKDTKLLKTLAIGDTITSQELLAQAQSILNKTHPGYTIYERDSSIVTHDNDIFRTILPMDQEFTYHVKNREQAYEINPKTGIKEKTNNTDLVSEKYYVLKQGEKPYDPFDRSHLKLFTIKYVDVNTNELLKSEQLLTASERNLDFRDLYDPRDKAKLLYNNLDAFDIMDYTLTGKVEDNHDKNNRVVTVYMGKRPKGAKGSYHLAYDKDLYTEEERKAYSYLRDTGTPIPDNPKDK

[16] = target: Heat shock protein HSP 90-alpha (Homo sapiens, UniProt P07900); type: functional, organism-based
[17] = cytotoxicity toward DRD oncogenic fibroblasts, dose response, cell-based, non-viral oncogenic, luminescence (AID 1934); type: functional; details: Homo sapiens
[18] = C. albicans growth with fluconazole, confirmation, fluorescence, retest (AID 2467); type: functional, cell-based
[19] = cells; type: functional, cell-based; remark: listed apart in the source
[20] = target: ATP-dependent molecular chaperone HSP82 (Candida albicans (strain WO-1) (Yeast), UniProt C4YTQ8); assay: loss of DOC-induced GRE-beta-galactosidase reporter signal, dose response, Hsp90 inhibitor project, S. cerevisiae, luminescence (AID 2400); type: functional, cell-based;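 further: beta-galactosidase luminescence from glucocorticoid response element reporter as proxy for Hsp90 function; inhibitor potency where signal loss means Hsp90 inhibition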
Sequence of ATP-dependent molecular chaperone HSP82 (C4YTQ8 whole entry): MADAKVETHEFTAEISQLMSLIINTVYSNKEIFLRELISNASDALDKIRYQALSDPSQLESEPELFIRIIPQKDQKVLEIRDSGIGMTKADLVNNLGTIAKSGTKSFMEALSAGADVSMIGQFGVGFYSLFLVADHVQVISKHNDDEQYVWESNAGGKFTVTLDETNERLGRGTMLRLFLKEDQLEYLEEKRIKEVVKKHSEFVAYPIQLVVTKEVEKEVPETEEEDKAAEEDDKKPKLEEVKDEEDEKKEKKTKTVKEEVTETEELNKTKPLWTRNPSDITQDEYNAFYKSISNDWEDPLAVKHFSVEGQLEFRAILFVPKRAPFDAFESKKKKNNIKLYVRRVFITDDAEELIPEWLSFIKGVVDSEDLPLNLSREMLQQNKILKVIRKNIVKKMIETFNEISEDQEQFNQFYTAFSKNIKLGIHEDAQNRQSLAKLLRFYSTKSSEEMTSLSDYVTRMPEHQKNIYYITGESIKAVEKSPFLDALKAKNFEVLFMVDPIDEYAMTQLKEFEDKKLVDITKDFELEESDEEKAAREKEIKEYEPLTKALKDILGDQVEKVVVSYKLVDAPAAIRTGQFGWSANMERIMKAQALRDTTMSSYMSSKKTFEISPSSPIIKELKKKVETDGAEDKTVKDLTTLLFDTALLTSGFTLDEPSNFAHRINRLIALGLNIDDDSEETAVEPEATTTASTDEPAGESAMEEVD

[21] = AlphaScreen signal interference compounds, dose response, artefact control for ARNT-TACC3 interaction inhibitor project, biochemical, luminescence, cherry-pick (AID 651705); type: functional;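 further: AlphaScreen bead proximity signal that flags compounds interfering with the detection technology; potency reflects signal decrease which marks the compound as an assay artifact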
[22] = target: T3, DNA repair protein RAD52 homolog (Homo sapiens, UniProt P43351); type: functional, biochemical
T3 sequence (P43351 whole entry): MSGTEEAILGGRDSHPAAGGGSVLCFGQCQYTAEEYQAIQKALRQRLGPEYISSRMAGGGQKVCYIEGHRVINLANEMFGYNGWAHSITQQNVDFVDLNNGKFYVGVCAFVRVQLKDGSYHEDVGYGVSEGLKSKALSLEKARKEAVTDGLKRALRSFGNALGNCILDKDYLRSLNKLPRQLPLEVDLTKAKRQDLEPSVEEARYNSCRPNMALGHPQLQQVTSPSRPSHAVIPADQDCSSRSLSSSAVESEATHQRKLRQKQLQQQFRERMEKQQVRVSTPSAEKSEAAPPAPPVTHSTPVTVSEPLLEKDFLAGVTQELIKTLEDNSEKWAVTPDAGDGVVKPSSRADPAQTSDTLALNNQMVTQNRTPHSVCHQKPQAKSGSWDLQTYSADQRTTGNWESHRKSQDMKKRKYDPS

[23] = MDA-MB-231 cell growth inhibition, dose response, cytotoxicity control for RAD54 inhibitor project, CellTiter-Glo luminescence, cherry-pick (AID 651692); type: functional, cell-based
[24] = target: T4, Protein skinhead-1 (Caenorhabditis elegans, UniProt P34707); type: functional
T4 sequence (P34707 whole entry): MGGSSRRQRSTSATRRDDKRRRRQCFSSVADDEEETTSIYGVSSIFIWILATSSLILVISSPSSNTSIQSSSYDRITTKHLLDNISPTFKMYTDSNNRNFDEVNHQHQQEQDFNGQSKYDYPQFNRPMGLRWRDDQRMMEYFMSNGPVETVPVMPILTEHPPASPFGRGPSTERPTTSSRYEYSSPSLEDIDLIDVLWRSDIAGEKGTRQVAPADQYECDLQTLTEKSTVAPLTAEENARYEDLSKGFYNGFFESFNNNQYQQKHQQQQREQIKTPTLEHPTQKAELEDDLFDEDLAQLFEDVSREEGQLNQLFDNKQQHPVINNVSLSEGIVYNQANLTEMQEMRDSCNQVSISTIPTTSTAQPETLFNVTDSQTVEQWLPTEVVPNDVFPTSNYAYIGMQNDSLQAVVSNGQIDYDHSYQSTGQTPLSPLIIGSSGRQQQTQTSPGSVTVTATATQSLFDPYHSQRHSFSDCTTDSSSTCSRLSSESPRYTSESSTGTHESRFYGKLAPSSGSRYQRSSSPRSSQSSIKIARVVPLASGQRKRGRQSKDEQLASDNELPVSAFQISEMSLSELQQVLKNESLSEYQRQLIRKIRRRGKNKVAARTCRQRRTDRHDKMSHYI

[25] = target: T5, DNA repair and recombination protein RAD54-like (Homo sapiens, UniProt Q92698); assay: inhibitors of human RAD54 branch migration, confirmation, biochemical, fluorescence, cherry-picked samples, dose series (AID 651657); type: functional
T5 sequence (Q92698 whole entry): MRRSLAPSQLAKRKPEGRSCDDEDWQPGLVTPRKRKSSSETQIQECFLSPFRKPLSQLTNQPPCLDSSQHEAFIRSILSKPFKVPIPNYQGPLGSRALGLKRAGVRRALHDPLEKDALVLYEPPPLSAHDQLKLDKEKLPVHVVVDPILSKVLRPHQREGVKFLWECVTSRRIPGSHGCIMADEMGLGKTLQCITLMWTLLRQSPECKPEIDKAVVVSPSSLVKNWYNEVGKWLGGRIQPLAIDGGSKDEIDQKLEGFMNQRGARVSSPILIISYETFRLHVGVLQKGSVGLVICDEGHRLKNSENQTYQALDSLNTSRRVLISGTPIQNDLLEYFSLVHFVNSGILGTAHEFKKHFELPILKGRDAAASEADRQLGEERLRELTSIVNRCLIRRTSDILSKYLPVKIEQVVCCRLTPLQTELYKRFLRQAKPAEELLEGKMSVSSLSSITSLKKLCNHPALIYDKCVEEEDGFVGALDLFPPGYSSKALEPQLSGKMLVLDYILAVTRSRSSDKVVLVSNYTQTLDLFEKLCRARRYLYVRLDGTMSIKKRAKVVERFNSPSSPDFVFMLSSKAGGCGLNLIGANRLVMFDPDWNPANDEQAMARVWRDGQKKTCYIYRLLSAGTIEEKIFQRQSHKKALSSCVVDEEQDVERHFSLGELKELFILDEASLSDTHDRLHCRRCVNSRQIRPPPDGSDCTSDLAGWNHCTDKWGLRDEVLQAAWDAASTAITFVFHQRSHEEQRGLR

[26] = target: Beta-2 adrenergic receptor (Homo sapiens, UniProt P07550); assay: beta2AR agonists driving receptor internalization, dose response, cell-based, FAP fluorogen, flow cytometry, cherry pick 1 (AID 588763); type: functional
Sequence of Beta-2 adrenergic receptor (P07550 whole entry): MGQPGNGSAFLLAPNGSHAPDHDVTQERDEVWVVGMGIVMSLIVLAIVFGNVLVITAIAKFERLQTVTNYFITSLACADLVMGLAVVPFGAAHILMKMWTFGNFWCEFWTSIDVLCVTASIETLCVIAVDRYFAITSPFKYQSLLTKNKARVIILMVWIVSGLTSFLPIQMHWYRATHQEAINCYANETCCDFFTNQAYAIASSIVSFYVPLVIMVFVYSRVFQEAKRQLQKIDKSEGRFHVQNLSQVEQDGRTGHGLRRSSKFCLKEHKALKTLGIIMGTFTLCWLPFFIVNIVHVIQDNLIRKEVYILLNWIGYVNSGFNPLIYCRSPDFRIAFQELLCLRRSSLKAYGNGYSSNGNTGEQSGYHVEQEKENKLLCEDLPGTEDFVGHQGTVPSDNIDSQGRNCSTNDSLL

[27] = system: Vero; assay: cells; type: functional; details: Chlorocebus sabaeus
[28] = target: Mitochondrial peptide methionine sulfoxide reductase (Bos taurus, UniProt P54149); type: functional;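 further: absorbance read-out, biochemical high-throughput dose-response screen for MsrA inhibitors, confirmatory; recombinant bovine MsrA coupled to E. coli TrxB with NADPH and selenocystamine; potency is for inhibitors of MsrA activity on DMSO substrate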
Sequence of Mitochondrial peptide methionine sulfoxide reductase (P54149 whole entry): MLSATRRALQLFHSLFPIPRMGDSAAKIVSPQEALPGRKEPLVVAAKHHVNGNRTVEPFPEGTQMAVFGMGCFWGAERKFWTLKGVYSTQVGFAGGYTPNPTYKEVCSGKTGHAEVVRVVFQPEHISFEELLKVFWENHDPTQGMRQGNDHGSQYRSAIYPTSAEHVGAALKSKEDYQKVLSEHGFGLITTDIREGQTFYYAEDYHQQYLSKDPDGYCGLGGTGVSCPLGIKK

[29] = HEp-2 cell cytotoxicity, dose response, cytotoxicity control for RSV inhibitor project, HTS (AID 2410); type: functional; details: human respiratory syncytial virus
[30] = target: T6, Interleukin-8 (Homo sapiens, UniProt P10145); assay: Dose Response confirmation of uHTS small molecule hits for cystic fibrosis induced NFkb Inhibitors in a TNFa-induced IL8 counterscreen.; type: functional; details: read-out: IC50_Mean
T6 sequence (P10145 whole entry): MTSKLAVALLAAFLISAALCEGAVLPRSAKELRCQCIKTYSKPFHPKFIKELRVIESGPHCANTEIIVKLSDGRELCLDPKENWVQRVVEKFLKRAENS

[31] = target: T6, Interleukin-8; assay: Dose Response confirmation of uHTS small molecule hits for cystic fibrosis induced NFkb Inhibitors in a PAF-induced IL8 counterscreen.; type: functional; details: read-out: IC50_Mean
[32] = target: Adenosylmethionine-8-amino-7-oxononanoate aminotransferase (Mycobacterium tuberculosis, UniProt P9WQ81); assay: Mycobacterium tuberculosis BioA enzyme inhibitor Measured in Biochemical System Using Plate Reader - 2163-02_Inhibitor_Dose_CherryPick_Activity.; type: functional, Mycobacterium tuberculosis UT205
Sequence of Adenosylmethionine-8-amino-7-oxononanoate aminotransferase (P9WQ81 whole entry): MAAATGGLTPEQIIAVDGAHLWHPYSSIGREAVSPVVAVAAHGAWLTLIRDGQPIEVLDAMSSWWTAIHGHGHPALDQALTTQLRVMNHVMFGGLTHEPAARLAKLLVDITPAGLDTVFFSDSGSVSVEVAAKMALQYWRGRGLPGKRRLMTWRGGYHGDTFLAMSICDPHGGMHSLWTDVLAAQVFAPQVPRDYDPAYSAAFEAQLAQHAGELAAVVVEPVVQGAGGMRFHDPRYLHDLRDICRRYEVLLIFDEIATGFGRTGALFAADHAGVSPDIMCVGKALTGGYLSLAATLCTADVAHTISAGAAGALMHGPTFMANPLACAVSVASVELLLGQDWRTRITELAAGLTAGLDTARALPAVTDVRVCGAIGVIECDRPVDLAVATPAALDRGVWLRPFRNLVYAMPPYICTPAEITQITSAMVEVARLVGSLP

[33] = target: Tyrosine-protein phosphatase non-receptor type 5 (Homo sapiens, UniProt P54829); assay: STEP phosphatase inhibitors, confirmation, biochemical, fluorescence intensity, uHTS hits (AID 602372); type: functional; details: read-out: IC50_Mean
Sequence of Tyrosine-protein phosphatase non-receptor type 5 (P54829 whole entry): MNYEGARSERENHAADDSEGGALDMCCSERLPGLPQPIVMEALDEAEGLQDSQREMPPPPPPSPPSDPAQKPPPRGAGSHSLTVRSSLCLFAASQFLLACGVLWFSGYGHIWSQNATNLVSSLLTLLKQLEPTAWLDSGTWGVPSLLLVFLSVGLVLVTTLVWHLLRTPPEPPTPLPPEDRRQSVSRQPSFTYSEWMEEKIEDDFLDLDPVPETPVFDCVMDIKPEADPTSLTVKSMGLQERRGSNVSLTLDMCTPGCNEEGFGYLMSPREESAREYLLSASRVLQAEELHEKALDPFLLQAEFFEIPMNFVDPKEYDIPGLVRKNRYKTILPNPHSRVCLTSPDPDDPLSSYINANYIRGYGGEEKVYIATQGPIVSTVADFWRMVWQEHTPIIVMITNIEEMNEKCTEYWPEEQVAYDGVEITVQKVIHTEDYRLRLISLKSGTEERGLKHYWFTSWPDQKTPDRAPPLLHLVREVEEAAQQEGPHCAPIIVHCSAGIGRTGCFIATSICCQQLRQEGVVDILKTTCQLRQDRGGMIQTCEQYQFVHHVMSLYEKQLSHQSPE

[34] = target: Tyrosine-protein phosphatase non-receptor type 11 (Homo sapiens, UniProt Q06124); assay: SHP2 phosphatase inhibition, dose response, selectivity assay for STEP inhibitor project, biochemical (AID 602367); type: functional; details: read-out: IC50_Mean
Sequence of Tyrosine-protein phosphatase non-receptor type 11 (Q06124 whole entry): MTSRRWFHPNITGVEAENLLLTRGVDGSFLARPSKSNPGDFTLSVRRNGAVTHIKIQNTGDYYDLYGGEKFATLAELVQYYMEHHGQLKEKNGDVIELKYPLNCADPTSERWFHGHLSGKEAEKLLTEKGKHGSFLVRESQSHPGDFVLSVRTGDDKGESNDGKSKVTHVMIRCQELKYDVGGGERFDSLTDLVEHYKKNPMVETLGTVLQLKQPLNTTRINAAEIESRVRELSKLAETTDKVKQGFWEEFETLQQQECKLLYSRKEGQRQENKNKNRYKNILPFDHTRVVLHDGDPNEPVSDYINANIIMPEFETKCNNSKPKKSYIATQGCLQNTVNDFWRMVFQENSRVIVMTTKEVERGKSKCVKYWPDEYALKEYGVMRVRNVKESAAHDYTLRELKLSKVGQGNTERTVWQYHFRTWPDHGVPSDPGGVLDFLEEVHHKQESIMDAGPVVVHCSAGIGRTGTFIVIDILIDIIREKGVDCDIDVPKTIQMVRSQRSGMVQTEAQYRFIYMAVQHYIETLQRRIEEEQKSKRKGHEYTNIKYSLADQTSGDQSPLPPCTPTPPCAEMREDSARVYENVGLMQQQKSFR

[35] = target: Dual specificity protein phosphatase 3 (Homo sapiens, UniProt P51452); assay: VHR phosphatase inhibition, dose response, selectivity assay for STEP inhibitor project, biochemical (AID 602374); type: functional; details: read-out: IC50_Mean
Sequence of Dual specificity protein phosphatase 3 (P51452 whole entry): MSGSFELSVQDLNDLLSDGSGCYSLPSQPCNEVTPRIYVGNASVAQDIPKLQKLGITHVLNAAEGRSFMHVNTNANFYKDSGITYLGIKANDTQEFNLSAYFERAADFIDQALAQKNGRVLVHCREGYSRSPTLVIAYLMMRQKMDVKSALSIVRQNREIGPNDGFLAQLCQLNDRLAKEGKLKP

Sequence of Nonstructural protein 1 (Q194T2 whole entry): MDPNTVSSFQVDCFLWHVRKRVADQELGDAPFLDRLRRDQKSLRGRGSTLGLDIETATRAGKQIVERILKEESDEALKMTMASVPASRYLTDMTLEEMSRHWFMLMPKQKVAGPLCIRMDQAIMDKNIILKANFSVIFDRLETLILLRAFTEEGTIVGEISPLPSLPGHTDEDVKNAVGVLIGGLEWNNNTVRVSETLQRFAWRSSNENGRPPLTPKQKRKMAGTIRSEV

With `Oc1c(CN2CCc3ccccc3C2)cc(Cl)c2cccnc12` the IC50 [1] was 11.1 µM (active), the EC50 [2] was > 350 µM (not active) and the EC50 [3] was 9.33 µM (active). The EC50 [4] was 1.03 µM (active), the EC50 [5] was 8.6 µM (active) and the EC50 [6] was 8.45 µM (inconclusive). The EC50 [7] was > 160 µM (inactive), the EC50 [8] was 10.9 µM (active) and the EC50 [9] was 17.7 µM (active). The AC50 [10] was < 0.1 µM (active), the EC50 [11] was > 180 µM (inactive) and the EC50 [12] was 22.2 µM (active). For the same molecule, the EC50 [13] was 0.973 µM (active), the EC50 [14] was 2.95 µM (active) and the EC50 [15] was > 150 µM (not active). For the same molecule, the AC50 [16] was 7.67 µM (active), the EC50 [17] was 6.01 µM (active) and the EC50 [18] was 0.712 µM (active). The EC50 [19] was > 350 µM (not active) and the EC50 [20] was > 160 µM (inactive).
With `O=C(CSc1cccc2cccnc12)Nc1cc(C(=O)O)cc(C(=O)O)c1` the AC50 [21] was 104 µM (active).
In the case of `CN(C)CCNc1ncnc2c1sc1nc(N3CCCC3)c3c(c12)CC(C)(C)OC3`, the AC50 [22] is reported as 6.55 µM (active), the AC50 [23] is reported as 34.7 µM (active) and the IC50 [24] is reported as > 100 µM (inactive). For the same molecule, the AC50 [25] was 9.5 µM (active), the EC50 [26] was 4.02 µM (active) and the CC50 [27] was 17.8 µM (active).
With `C/C(N)=C(/C#N)C(=O)CSc1nn(-c2ccc(Cl)cc2)c(=S)s1` the IC50 [28] was 155 µM (inactive) and the CC50 [29] was 15.9 µM (active).
With `C=CC(=O)Nc1cccc(Oc2[nH]cnc3ncc(-c4cnc5ccccc5c4)c2-3)c1` the IC50 [30] was 3.39 µM (active) and the IC50 [31] was 2.52 µM (active).
In the case of `C/C=C(/C)C(=O)OC(C)(C)[C@@H]1Cc2c(ccc3ccc(=O)oc23)O1` [COLUMBIANADIN], the AC50 [32] is reported as 0.389 µM (active).
In the case of `O=C(NN=Cc1ccccc1O)NN=Cc1ccccc1O`, the IC50 [33] is reported as 10.1 µM (active), the IC50 [34] is reported as 3.93 µM (active) and the IC50 [35] is reported as 4.05 µM (active).

— ChEMBL document CHEMBL1201862, “PubChem BioAssay data set” (2004)
